From PubChem BioAssay (NCI)
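A five-concentration, 48-hour dose response in 96-well plates underlies each endpoint, interpolated linearly between surrounding concentrations. GI50 = concentration required for 50% inhibition of growth. TGI: concentration producing complete growth inhibition.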

Columns and labels:
Assay in all cases: NCI anticancer screen, dose series, 48 h
OVCAR-8 ovarian = system: OVCAR-8 ovarian
HT29 colon = system: HT29 colon
NCI-H522 lung = system: NCI-H522 lung
HS 578T breast = system: HS 578T breast
786-0 renal = system: 786-0 renal
SN12C renal = system: SN12C renal
NCI-H460 lung = system: NCI-H460 lung
UACC-62 melanoma = system: UACC-62 melanoma
T-47D breast = system: T-47D breast
MDA-N = system: MDA-N
ACHN renal = system: ACHN renal
K-562 leukemia = system: K-562 leukemia

Structure (SMILES)	TGI (OVCAR-8 ovarian) [µM]	TGI (HT29 colon) [µM]	TGI (NCI-H522 lung) [µM]	TGI (HS 578T breast) [µM]	TGI (786-0 renal) [µM]	TGI (SN12C renal) [µM]	TGI (NCI-H460 lung) [µM]	TGI (UACC-62 melanoma) [µM]	TGI (T-47D breast) [µM]	TGI (MDA-N) [µM]	TGI (ACHN renal) [µM]	TGI (K-562 leukemia) [µM]	GI50 (OVCAR-8 ovarian) [µM]	GI50 (SN12C renal) [µM]	GI50 (UACC-62 melanoma) [µM]	GI50 (T-47D breast) [µM]	GI50 (K-562 leukemia) [µM]	GI50 (ACHN renal) [µM]
O=C1C=C2S[C@H]3C[C@]2(C=C1Br)c1c(c(O)c2c4c1=NCCC=4C=N2)N3	1.56	1.55	0.716	3.48	2.14	2.48	11.6	1.23	0.89	0.314	1.76							
C=C1c2nc3ccccc3n2C=C(c2ccc(Cl)cc2)N1c1ccc(OCCN2CCOCC2)cc1		> 100		> 100	> 100	> 100	> 100	99.6	> 100	> 100	> 100	> 100						
O=C(N=Nc1ccc([N+](=O)[O-])cc1)NNc1ccc([N+](=O)[O-])cc1	41.9	61.8	33.1		27	40.5	47.2	22.2	25.2	32.3	38.8	45.8						
c1ccc(Cc2cccc3cc(-c4ccc(-c5ccccc5)cc4)[nH]c23)cc1	> 100	> 100	> 100	84	> 100	> 100	> 100	> 100	> 100	> 100	> 100							
CCN(CC)CCN1C(=O)c2cccc3c(-c4ccc5c(c4)ncn5C4CCCCC4)ccc(c23)C1=O	4.62					2.78		3.03	6.22		2.96	3.97	1.75	1.27	1.56	1.65	0.476	1.16
Nn1c(CNc2ccc(-c3nnc(Nc4ccc(Cl)cc4)n3N)cc2)nnc1Nc1ccc(Cl)cc1		> 100	> 100		> 100	> 100	> 100	> 100		> 100	> 100	> 100						
COC1/C=C\C=C(/C)C(=O)NC2=CC(=O)C=C(C2=O)C(OC)C(C)CC(OC)C(OC)C(C)/C=C(/C)C1OC(N)=O (stereo not given)	5.62	12.1	1.1			19	27.2	15.7				1.44						
CSCCC(NC(=O)C(Cc1ccccc1)NC(=O)CNC(=O)CNC(=O)C(N)Cc1ccc(O)cc1)C(=O)O (stereo not given)	> 100	> 100	> 100			> 100	> 100	> 100				> 100						
C=CCn1c2ccccc2c2c(C)c3cnccc3c(C)c21	40.4	124	37.2			> 66.2	37.8	41.2				52.2						
N#CS/C(C(Cl)=C(Cl)Cl)=C(/Cl)[N+](=O)[O-]	3.49		2.13	> 61.4		4.92	33.2	17.5	4.86	3.18	3.1	1.62						
Cn1c(-c2ccccc2)cc(-c2ccc3c(c2)OCO3)c1-c1cccs1	> 100	> 100		> 100	> 100	> 100	> 100	> 100	> 100	> 100	> 100	> 100						
O=C(Nc1ccc(Cl)cc1)c1cc(S(=O)(=O)Nc2n[nH]c(=O)[nH]2)c(SSc2cc(Cl)c(C(=O)Nc3ccc(Cl)cc3)cc2S(=O)(=O)Nc2n[nH]c(=O)[nH]2)cc1Cl	> 100	> 100	> 100	> 100	> 100	> 100	> 100	> 100		> 100	> 100	> 100						
O=C1/C(=C/c2ccc(O)cc2)NC(=S)N1CN1CCCCC1	> 100	> 100	> 100	> 100	> 100	> 100		> 100		> 100	> 100	> 100						
CC(=O)OC1C=CC2CCN3C(=O)c4cc5c(cc4[C@H]1C23)OCO5 (stereo not given in full)	> 100	> 100	> 100		> 100	> 100	> 100	> 100			> 100	> 100						
N#CC12COC3(CCCCC3C1(C#N)C#N)OC2=N (stereo not given)		26.1		44.7	> 100	24.8	29.4	33.9	26.7	25.5	30.1	> 100						
Nc1[nH]c(=O)nc2sc3c(c12)CCCC3	> 100	> 100	> 100	71.9	> 100	> 100	> 100	> 100	> 100		> 100	> 100						
COc1ccc(/C=C2/C(=O)N(C(=O)c3ccccc3O)N=C2C)cc1OC	> 100	> 100	> 100		> 100	> 50.7	> 100	0.591		> 100	> 100	> 100						
O=C1CCc2c3c(c4c([nH]c5ccccc54)c2CC1)C(=O)NC3=O	38.2	12.1	9.3	> 100	> 100	> 100	44.9	42.8	6.01		24.7	> 100						
O=C(O)CC(NC(=O)C(F)(F)F)C(=O)NC1Cc2ccccc2OC1=O (stereo not given)	> 100	> 100	> 100	> 100	> 100	> 100	> 100	> 100		> 100	> 100	> 100						
C1CNCCN2CCCNCCN(C1)CC2	> 100	> 100	> 100	> 100	> 100	> 100	> 100	> 100	> 100	> 100	> 100							
